How the values were obtained:
[1] = tested on: secretion of amyloid peptide β1-40 (Aβ1-40); experiment: Inhibition of β-amyloid secretion (CHO7w cells stably transfected with human APP, ELISA); format: cell-based; conditions: CHO-7W, 24 h incubation, range stated for the listed compounds together
Procedure: The inhibition caused by the compounds on the secretion of amyloid peptide β1-40 (Aβ1-40) was determined by measuring the levels of this peptide in cell supernatants after incubating the cells with several concentrations of the tested compound. A CHO7w cell line, stably transfected with human amyloid precursor protein (APP), was used. Cells were dispensed in 96-well culture plates (5,000 cells/well) and grown in DMEM supplemented with 2% (v/v) foetal bovine serum, 100 U/ml penicillin, 100 μg/ml streptomycin, 2 mM L-glutamine and 200 μg/ml G418 in the presence of several concentrations of the tested compound which had been previously dissolved in DMSO (1% (v/v) DMSO final concentration). After a 24 h incubation the amount of Aβ1-40 secreted to the medium was measured with an ELISA-based commercial kit (Human Amyloid β-40 ELISA High Sensitivity Kit, Millipore, Billerica, Mass., USA) using absorbance at 450 nm as the final readout. In the culture plate several wells were included as a control for lack of Aβ1-40 secretion, in these wells the cells were incubated in the presence of 16% (v/v) DMSO to inhibit cell growth therefore abolishing Aβ1-40 secretion. Likewise, several wells were also included as a control for full Aβ1-40 secretion, in these wells the cells were grown in the presence of 1% (v/v) DMSO. The absorbance of each tested sample was normalized to that of the control wells, so that for every compound concentration the percentage of inhibition was calculated with the following equation:
[formula] where “S” is the absorbance of the sample being considered, “E” is the average absorbance of wells lacking Aβ1-40 secretion and “B” is the average absorbance of wells with full Aβ1-40 secretion. The inhibition values obtained at every compound concentration were fitted to a 4-parameters isotherm equation, as described above, to calculate the […] (i.e., the concentration causing 50% of inhibition of Ab1-40 secretion).

[2] = tested on: SH-SY5Y human neuroblastoma cells; experiment: Protection against hydrogen peroxide-induced cell death; format: cell-based; conditions: Homo sapiens; SH-SY5Y cells, 1 h preincubation, 100 μM hydrogen peroxide, 24 h, LDH readout of live cells
Procedure: The aim of this assay is to determine the neuroprotective effect of the compounds when human neuroblastoma cells are exposed to the oxidative stress induced by hydrogen peroxide, which leads to cell death. Therefore the protective effect of the compounds was measured by monitoring cell survival using a suitable commercial kit (Cytotoxicity Detection Kit, Roche Diagnostics GmbH, Mannheim, Germany) based on the quantification of the lactate dehydrogenase activity obtained from lysates of the remaining live cells with a colorimetric assay yielding absorbance at 492 nm as the final readout.
SH-SY5Y human neuroblastoma cells were seeded into 96-well culture plate at a density of 10,000 cells/well. Cells were preincubated for one hour with different concentrations of the compound at a 1% (v/v) DMSO concentration in an equivolumetric mixture of Minimum Essential Medium (MEM) and Nutrient Mixture HAM F12 supplemented with 10% foetal bovine serum, 100 U/ml penicillin, 100 μg/ml streptomycin, 1 mM each of non-essential aminoacids (commercial preparation from GIBCO, Paisley, UK) and 2 mM L-glutamine. Hydrogen peroxide was then added to reach 100 μM and the incubation was extended for 24 h. Then the medium was removed and live cells, which remained attached to the bottom of the plate, were lysed by incubating them during 5 min with 50 μl of 1% (v/v) Triton X-100 in Krebs-Hepes buffer (10 mM Hepes pH7.3 with 145 mM NaCl, 5.5 mM KCl, 1 mM MgCl2, 2 mM CaCl2 and 1 mM glucose). This lysate was used to measure LDH activity using the commercial kit according to the manufacturer's instructions. In the culture plate several wells were included as a control of cell death, in these wells the cells were preincubated with 1% (v/v) DMSO before hydrogen peroxide addition. Likewise, several wells were included as control for full cell survival, in these wells the addition of H2O2 was omitted. The absorbance of each tested sample was normalized to that of the control wells, so that for every compound concentration the percentage of protective effect was calculated with the following equation:
[formula] where “S” is the absorbance of the sample being considered, “E” is the average absorbance of wells used as control of full cell survival and “B” is the average absorbance of wells used as control of cell death. The values obtained at every compound concentration were finally used to calculate the EC50 (i.e., the concentration causing 50% of protective effect) of the tested compound. For that purpose the data were fitted to a classical 4-parameters isotherm equation using the nonlinear regression function of GraphPad™ Prism 5.0 (GraphPad Software Inc.), such equation is described below:
[formula] where “L” is the lower asymptote of the theoretical sigmoidal curve, “H” is the higher asymptote, “C” is the concentration of compound and “n” is the Hill coefficient.

IC50 [1] | SMILES | EC50 [2]
0.3 to 42 µM | CCN(CC)CCOc1cc(CN(Cc2cc(OCCN(CC)CC)cc(-c3ccccn3)n2)S(=O)(=O)c2cccs2)nc(-c2ccccn2)c1 [Compound 29, Thiophene-2-sulfonic acid bis-[4-(2-diethylamino-ethoxy)-[2,2′]bipyridinyl-6-ylmethyl]-amide] | 
 | COc1cc(CNS(=O)(=O)c2ccc(-c3cc(C)no3)o2)nc(-c2ccccn2)c1 [Compound 79] | 0.72 µM
0.3 to 42 µM | COc1cc(CNS(=O)(=O)c2cc(Cl)ccc2F)nc(-c2ccccn2)c1 [Compound 44] | 
 | COc1cc(CNS(=O)(=O)c2cc(F)ccc2F)nc(-c2ccccn2)c1 [Compound 59] | 4.8 µM
0.3 to 42 µM | COc1cc(CN(Cc2cc(OC)cc(-c3ccccn3)n2)S(=O)(=O)c2ccc(Cl)s2)nc(-c2ccccn2)c1 [Compound 27] | 3.52 µM
 | COc1cc(CNS(=O)(=O)c2cccc3scnc23)nc(-c2ccccn2)c1 [Compound 61] | 0.82 µM
0.3 to 42 µM | COc1cc(CNS(=O)(=O)c2ccc(-c3ccccc3)cc2)nc(-c2ccccn2)c1 [Compound 89] | 
0.3 to 42 µM | COc1cc(CNS(=O)(=O)c2cnc(Cl)s2)nc(-c2ccccn2)c1 [Compound 106] | 0.63 µM
0.3 to 42 µM | COc1ccc(S(=O)(=O)NCc2cc(OC)cc(-c3ccccn3)n2)cc1 [Compound 38, 4-Methoxy-N-(4-methoxy-[2,2′]bipyridinyl-6-ylmethyl)-benzenesulfonamide] | 
0.3 to 42 µM | COc1cc(CNS(=O)(=O)c2sc(Cl)nc2Cl)nc(-c2ccccn2)c1 [Compound 101] | 0.23 µM
 | COc1cc(CN(Cc2cc(OC)cc(-c3ccccn3)n2)S(=O)(=O)c2cccs2)nc(-c2ccccn2)c1 [Compound 25] | 4.95 µM
0.3 to 42 µM | COc1cc(CNS(=O)(=O)c2c(C)cc(C)cc2C)nc(-c2ccccn2)c1 [Compound 75] | 
0.3 to 42 µM | COc1cc(CNS(=O)(=O)CCC(F)(F)F)nc(-c2ccccn2)c1 [Compound 86] | 
 | COc1cc(CNS(=O)(=O)c2ccc(C)cc2)nc(-c2ccccn2)c1 [Compound 3, N-(4-Methoxy-[2,2′]bipyridinyl-6-ylmethyl)-4-methyl-benzenesulfonamide] | 23 µM
0.3 to 42 µM | COc1cc(CNS(=O)(=O)c2ccc([N+](=O)[O-])cc2)nc(-c2ccccn2)c1 [Compound 74] | 
0.3 to 42 µM | COc1cc(CNS(=O)(=O)c2ccc(C(C)(C)C)cc2)nc(-c2ccccn2)c1 [Compound 88] | 
0.3 to 42 µM | COc1cc(CNS(=O)(=O)c2cnc(Cl)nc2)nc(-c2ccccn2)c1 [Compound 107] | 
0.3 to 42 µM | COc1cc(CNS(=O)(=O)c2cccc(Cl)c2F)nc(-c2ccccn2)c1 [Compound 56] | 1.06 µM
 | COc1cc(CNS(=O)(=O)c2cc(OC)ccc2OC)nc(-c2ccccn2)c1 [Compound 1, 2,5-Dimethoxy-N-(4-methoxy-[2,2′]bipyridinyl-6-ylmethyl)-benzenesulfonamide] | 36 µM
0.3 to 42 µM | COc1cc(CNS(=O)(=O)c2ccc(CNC(C)=O)s2)nc(-c2ccccn2)c1 [Compound 52] | 
0.3 to 42 µM | COc1cc(CNS(=O)(=O)c2ccc(-c3ccccn3)s2)nc(-c2ccccn2)c1 [Compound 46] | 
 | COc1cc(CNS(=O)(=O)c2c(F)cccc2F)nc(-c2ccccn2)c1 [Compound 58] | 1.6 µM
 | COc1cc(CNS(=O)(=O)c2ccc3ccccc3c2)nc(-c2ccccn2)c1 [Compound 15, Naphthalene-2-sulfonic acid (4-methoxy-[2,2′]bipyridinyl-6-ylmethyl)-amide] | 4.8 µM

IC50 [1] | SMILES | EC50 [2]
 | COc1cc(CNS(=O)(=O)c2c(C)noc2C)nc(-c2ccccn2)c1 [Compound 54] | 23.1 µM
0.3 to 42 µM | COc1cc(CNS(=O)(=O)c2c(Cl)cccc2Cl)nc(-c2ccccn2)c1 [Compound 97] | 
 | COc1cc(CNS(=O)(=O)Cc2ccc(C(F)(F)F)cc2)nc(-c2ccccn2)c1 [Compound 23, N-(4-Methoxy-[2,2′]bipyridinyl-6-ylmethyl)-C-(4-trifluoromethyl-phenyl)-methanesulfonamide] | 2.91 µM
0.3 to 42 µM | COc1cc(CNS(=O)(=O)c2c(F)cc(OC)cc2F)nc(-c2ccccn2)c1 [Compound 85] | 
0.3 to 42 µM | COc1cc(CNS(=O)(=O)c2c(C)cccc2Cl)nc(-c2ccccn2)c1 [Compound 84] | 
 | COc1cc(CNS(C)(=O)=O)nc(-c2ccccn2)c1 [Compound 5, N-(4-Methoxy-[2,2′]bipyridinyl-6-ylmethyl)-methanesulfonamide] | 39.8 µM
 | COc1cc(CNS(=O)(=O)c2cccnc2)nc(-c2ccccn2)c1 [Compound 21, Pyridine-3-sulfonic acid (4-methoxy-[2,2′]bipyridinyl-6-ylmethyl)-amide] | 5.19 µM
 | COc1cc(CNS(=O)(=O)C(F)(F)F)nc(-c2ccccn2)c1 [Compound 17, C,C,C-Trifluoro-N-(4-methoxy-[2,2′]bipyridinyl-6-ylmethyl)-methanesulfonamide] | 0.82 µM
0.3 to 42 µM | COc1cc(CNS(=O)(=O)c2cc(C(F)(F)F)ccc2F)nc(-c2ccccn2)c1 [Compound 66] | 
0.3 to 42 µM | COc1cc(CNS(=O)(=O)c2ccccc2C#N)nc(-c2ccccn2)c1 [Compound 40] | 
0.3 to 42 µM | COc1cc(CNS(=O)(=O)c2sc(Cl)nc2C)nc(-c2ccccn2)c1 [Compound 47] | 
0.3 to 42 µM | COc1cc(CNS(=O)(=O)c2ccc3c(c2)OCCO3)nc(-c2ccccn2)c1 [Compound 87] | 
 | COc1cc(CNS(=O)(=O)c2ccc(S(C)(=O)=O)cc2)nc(-c2ccccn2)c1 [Compound 22, 4-Methanesulfonyl-N-(4-methoxy-[2,2′]bipyridinyl-6-ylmethyl)-benzenesulfonamide] | 0.88 µM
 | COc1cc(CNS(=O)(=O)C2CCCCC2)nc(-c2ccccn2)c1 [Compound 7, Cyclohexanesulfonic acid (4-methoxy-[2,2′]bipyridinyl-6-ylmethyl)-amide] | 11.2 µM
0.3 to 42 µM | COc1cc(CNS(=O)(=O)c2ccc(-c3ccno3)s2)nc(-c2ccccn2)c1 [Compound 42] | 
0.3 to 42 µM | COC(=O)c1ccc(S(=O)(=O)NCc2cc(OC)cc(-c3ccccn3)n2)o1 [Compound 51] | 
 | COc1cc(CNS(=O)(=O)N2CCOCC2)nc(-c2ccccn2)c1 [Compound 20, Morpholine-4-sulfonic acid (4-methoxy-[2,2′]bipyridinyl-6-ylmethyl)-amide] | 5.1 µM
 | COc1cc(CNS(=O)(=O)c2cccc(Cl)c2Cl)nc(-c2ccccn2)c1 [Compound 95] | 1.09 µM
 | COc1cc(CNS(=O)(=O)c2cccc3cccnc23)nc(-c2ccccn2)c1 [Compound 60] | 3.2 µM
0.3 to 42 µM | COc1cc(CNS(=O)(=O)c2cc3ccccc3s2)nc(-c2ccccn2)c1 [Compound 73] | 
 | COc1cc(CNS(=O)(=O)c2ccc(Cl)cc2F)nc(-c2ccccn2)c1 [Compound 57] | 1.5 µM
0.3 to 42 µM | COc1cc(CNS(=O)(=O)c2ccc(C(F)(F)F)cc2[N+](=O)[O-])nc(-c2ccccn2)c1 [Compound 102] | 
 | COc1cc(CNS(=O)(=O)c2cc3ccccc3o2)nc(-c2ccccn2)c1 [Compound 62] | 1.88 µM

Source: patent US9284296B2, “Bipyridine sulfonamide derivatives for the treatment of neurodegenerative diseases or conditions” (AUBERGINE PHARMACEUTICALS LLC, priority 2010, dated 2016)
